# Reference: paper PMC5584945, “Evaluation of robenidine analog NCL195 as a novel broad-spectrum antibacterial agent” (PLoS ONE, 2017)
# Like-named read-outs stand apart in the source and are kept apart here.
# Columns and labels:
# [1] = tested on: S. pneumoniae; experiment: MIC, broth micro-dilution (CLSI); type: cell-based, Streptococcus pneumoniae; conditions: Streptococcus pneumoniae, WU2 (serotype 3); 10% FBS
# [2] = tested on: S. pneumoniae D39; experiment: Membrane potential, DiOC2(3) fluorescence; type: cell-based, Streptococcus pneumoniae; conditions: 16 μg/ml, pre-incubated 5 min; versus untreated and ampicillin
# Description: To further examine the mechanism underlying the perturbation of the cell membrane of S. pneumoniae or S. aureus by the NCL compounds, the membrane potential of the cells was measured by fluorescence spectrometry using (DiOC2(3), essentially as described previously. Briefly, […] cells from an overnight HBA plate were grown in Todd-Hewitt broth supplemented with 1% yeast extract (THY) at 37°C, 5% CO2 until A600 nm = 0.5. […] The cuvette was then placed in a LS 55 Fluorescence Spectrometer (PerkinElmer) set at Ex. 488 nm/Em. 620 nm, with excitation and emission slit widths at 5 nm and 7 nm, respectively). […] All assays were performed at least twice.
# [3] = tested on: S. aureus; experiment: MIC, broth micro-dilution (CLSI); type: cell-based, Staphylococcus aureus; conditions: for MIC / MIC50 / MIC90: Staphylococcus aureus
# [4] = LogD by gradient HPLC chromatographic method; type: physicochemical; conditions: pH 7.4
# [5] = tested on: Hep G2; experiment: Real-time cell viability, RealTime-Glo MT; type: cell-based, human; conditions: 2 or 8 μg/ml, up to 20 h post-treatment
# [6] = tested on: MDBK; experiment: In vitro cytotoxicity, WST-1; type: cell-based, bovine; conditions: Bos taurus, 24 h exposure, read-out: IC50 values ± SEM
# Source text: In order to ensure minimal off target mammalian cell cytotoxicity, we assayed NCL812, NCL195 and NCL219 for in vitro cytotoxicity using a panel of adherent mammalian cell lines: Caco-2 (human colorectal adenocarcinoma cell line), HEL 299 (non-cancerous human lung fibroblast cell line), Hep G2 (human hepatocellular carcinoma cell line), MDBK (normal bovine kidney cell line) and MCF7 (human mammary gland adenocarcinoma cell line). Cell lines were maintained in Dulbecco’s Modified Eagle’s Medium (DMEM; […] After 24 h incubation, media was removed, washed once with medium without antibiotics and fresh medium supplemented with 10% (vol/vol) FBS was added. […] Following exposure for 24 h, WST-1 reagent was added to each well at a final concentration of 10%. […] The IC50 value for each compound against each cell line was determined via non-linear regression (three parameters) using GraphPad Prism v6 software. The robustness of assays was confirmed with selected cell lines (Hep G2 and MDBK) seeded onto a 96–well Microwell Nunclon Delta Surface plate (Thermo Scientific Nunc; Cat No: 136101) at 5 × 10^4 cells per well.
# [7] = S2 Table isolates, absence of FBS
smiles,measurement,setting,value
"Cl.N=C(NN=Cc1ccc(Cl)cc1)NN=Cc1ccc(Cl)cc1 [NCL812, 2,2'-bis[(4-chlorophenyl)methylene] carbonimidic dihydrazide hydrochloride]",MIC,[1],8 µg/mL
same,Effect on generated membrane potential,[2],large reduction in the magnitude of the generated membrane potential
same,Fold increase of MIC range in the presence of 10% FBS,[3]; 10% FBS versus no FBS,4-8 fold
same,MIC range,[3]; 23 isolates,2 to 8 µg/mL
same,MIC range,"[3]; S2 Table isolates, 10% FBS",32 µg/mL
same,MIC range,[3]; [7],2 to 8 µg/mL
same,MIC,"[3]; ATCC 12600 / MSSA, ATCC12600 [Xen29] (MSSA), 10% FBS",32 µg/mL
same,MIC,"[3]; ATCC 12600 / MSSA, ATCC12600 [Xen29] (MSSA), absence of FBS",4 µg/mL
same,MIC,"[3]; ATCC 29213 / MSSA, ATCC29213 MSSA (ST5), 10% FBS, read-out: MIC",32 µg/mL
same,MIC,"[3]; ATCC 29213 / MSSA, ATCC29213 MSSA (ST5), absence of FBS, read-out: MIC",4 µg/mL
same,MIC,"[3]; ATCC 49775 / MSSA, ATCC 49775 (MSSA), 10% FBS, read-out: MIC",32 µg/mL
same,MIC,"[3]; ATCC 49775 / MSSA, ATCC 49775 (MSSA), absence of FBS, read-out: MIC",2 µg/mL
same,MIC,"[3]; IRISH 1 – HA-EMRSA (ST8), 10% FBS, read-out: MIC",32 µg/mL
same,MIC,"[3]; IRISH 1 – HA-EMRSA (ST8), absence of FBS, read-out: MIC",2 µg/mL
same,MIC,"[3]; IRISH 2 – HA-EMRSA (ST8), 10% FBS, read-out: MIC",32 µg/mL
same,MIC,"[3]; IRISH 2 – HA-EMRSA (ST8), absence of FBS, read-out: MIC",2 µg/mL
same,MIC,"[3]; MRSA / USA300, USA 300 - MRSA (ST8), 10% FBS, read-out: MIC",32 µg/mL
same,MIC,"[3]; MRSA / USA300, USA 300 - MRSA (ST8), absence of FBS, read-out: MIC",2 µg/mL
same,MIC,"[3]; MRSA, AUS2-MRSA (ST239), 10% FBS, read-out: MIC",32 µg/mL
same,MIC,"[3]; MRSA, AUS2-MRSA (ST239), absence of FBS, read-out: MIC",2 µg/mL
same,MIC,"[3]; MRSA, AUS3-MRSA (ST239), 10% FBS, read-out: MIC",32 µg/mL
same,MIC,"[3]; MRSA, AUS3-MRSA (ST239), absence of FBS, read-out: MIC",2 µg/mL
same,MIC,"[3]; MRSA, BENGAL BAY PVL+ – CA-MRSA (ST772), 10% FBS, read-out: MIC",32 µg/mL
same,MIC,"[3]; MRSA, BENGAL BAY PVL+ – CA-MRSA (ST772), absence of FBS, read-out: MIC",2 µg/mL
same,MIC,"[3]; MRSA, Classic–HA-MRSA (ST250), 10% FBS, read-out: MIC",32 µg/mL
same,MIC,"[3]; MRSA, Classic–HA-MRSA (ST250), absence of FBS, read-out: MIC",2 µg/mL
same,MIC,"[3]; MRSA, NY JAPAN – HA MRSA (ST5), 10% FBS, read-out: MIC",32 µg/mL
same,MIC,"[3]; MRSA, NY JAPAN – HA MRSA (ST5), absence of FBS, read-out: MIC",2 µg/mL
same,MIC,"[3]; MRSA, QLD PVL+ –CA-MRSA (ST93), 10% FBS, read-out: MIC",32 µg/mL
same,MIC,"[3]; MRSA, QLD PVL+ –CA-MRSA (ST93), absence of FBS, read-out: MIC",2 µg/mL
same,MIC,"[3]; MRSA, ST398–CA-MRSA-V (ST398), 10% FBS, read-out: MIC",32 µg/mL
same,MIC,"[3]; MRSA, ST398–CA-MRSA-V (ST398), absence of FBS, read-out: MIC",2 µg/mL
same,MIC,"[3]; MRSA, WA2–CA-MRSA (ST78), absence of FBS",4 µg/mL
same,MIC,"[3]; MRSA, WA84–CA-MRSA (ST45), absence of FBS",4 µg/mL
same,MIC,"[3]; MRSA, WSPP – PVL neg CA MRSA (ST30), absence of FBS, read-out: MIC",2 µg/mL
same,MIC50,"[3]; S2 Table isolates, 10% FBS",32 µg/mL
same,MIC90,"[3]; S2 Table isolates, 10% FBS",32 µg/mL
same,MIC50,[3]; [7],2 µg/mL
same,MIC90,[3]; [7],4 µg/mL
same,MIC,"[3]; TAIWAN PVL+ – CA-cMRSA (ST59), 10% FBS, read-out: MIC",32 µg/mL
same,MIC,"[3]; TAIWAN PVL+ – CA-cMRSA (ST59), absence of FBS, read-out: MIC",2 µg/mL
same,MIC,"[3]; UK 15 PVL+ – HA-EMRSA (ST22), 10% FBS, read-out: MIC",32 µg/mL
same,MIC,"[3]; UK 15 PVL+ – HA-EMRSA (ST22), absence of FBS, read-out: MIC",4 µg/mL
same,MIC,"[3]; UK 15 – HA-EMRSA (ST22), 10% FBS, read-out: MIC",32 µg/mL
same,MIC,"[3]; UK 15 – HA-EMRSA (ST22), absence of FBS, read-out: MIC",4 µg/mL
same,MIC,"[3]; UK 16 – HA- EMRSA (ST36), 10% FBS, read-out: MIC",32 µg/mL
same,MIC,"[3]; UK 16 – HA- EMRSA (ST36), absence of FBS, read-out: MIC",4 µg/mL
same,MIC,"[3]; UK 17 – HA-EMRSA (ST247), 10% FBS, read-out: MIC",32 µg/mL
same,MIC,"[3]; UK 17 – HA-EMRSA (ST247), absence of FBS, read-out: MIC",2 µg/mL
same,chromatographic logD,[4],4.5
same,Effect on cell viability (real-time),[5],affected viability at 8 μg/ml
same,IC50,[6],5.9 ± 0.1 µg/mL
